Assay: photoluminescence quantum yield (fraction); solvent given as SMILES
[1] = in O=P(c1ccccc1)(c1ccccc1)c1ccccc1Oc1ccccc1P(=O)(c1ccccc1)c1ccccc1

COc1cc(C2=c3c(c4ccc(C(C)(C)C)cc4c4cc(C(C)(C)C)ccc34)=[N+]3C2=Nc2c(-c4cc(OC)c(OC)c(OC)c4)c4c5ccc(C(C)(C)C)cc5c5cc(C(C)(C)C)ccc5c4n2[B-]3(F)F)cc(OC)c1OC
photoluminescence quantum yield (in Cc1ccccc1): 0.01

CCC(C)(C)c1ccc2c(c1)C(CCOC)(CCOC)c1cc(-c3ccc4c(c3)C(CCOC)(CCOC)c3cc(C(C)(C)CC)ccc3-4)ccc1-2
photoluminescence quantum yield (in C1CCCCC1): 0.61

CCN(CC)c1ccc([N+]2=Cc3ccc4c5c(ccc4c3O[B-]2(c2c(F)c(F)c(F)c(F)c2F)c2c(F)c(F)c(F)c(F)c2F)C=[N+](c2ccc(N(CC)CC)cc2)[B-](c2c(F)c(F)c(F)c(F)c2F)(c2c(F)c(F)c(F)c(F)c2F)O5)cc1
photoluminescence quantum yield (in Cc1ccccc1): 0.33
photoluminescence quantum yield (in ClCCl): 0.1

CC1=CC(=[N+]2CCC2)C=C2C1=Nc1c(C)cc(N3CCC3)cc1[Si]2(C)C
photoluminescence quantum yield (in C1COCCO1): 0.11
photoluminescence quantum yield (in CCO): 0.11
photoluminescence quantum yield (in O): 0.009
photoluminescence quantum yield (in OCCO): 0.13

COc1ccc(-c2ccc(/C=C/c3cnc4ccccc4n3)cc2)cc1
photoluminescence quantum yield (in ClCCl): 0.42

Cc1cc(C)c(B(c2c(C)cc(C)cc2C)c2c(C)cc(N3c4ccccc4Oc4ccccc43)cc2C)c(C)c1
photoluminescence quantum yield (in Cc1ccccc1): 0.44
photoluminescence quantum yield (in c1ccc2c(c1)c1ccccc1n2-c1ccc(-c2ccc(-n3c4ccccc4c4ccccc43)cc2)cc1): 0.92

CCCCCCCCC1(CCCCCCCC)c2cc(-c3ccc([Si](C)(C)C)cc3)ccc2-c2ccc(-c3ccc([Si](C)(C)C)cc3)cc21
photoluminescence quantum yield (in ClC(Cl)Cl): 0.89

COc1ccc(-c2cnc3cccc(-c4ccccc4)n23)cc1
photoluminescence quantum yield (in ClCCl): 0.26

Clc1ncc(-c2c3ccccc3c(-c3cnc(Cl)nc3)c3ccccc23)cn1
photoluminescence quantum yield (in CCO): 0.22
photoluminescence quantum yield (in ClCCl): 0.78

CCCN1/C(=C/C=C/C=C/C2=[N+](CCC)c3ccccc3C2(C)C)C(C)(C)c2ccccc21
photoluminescence quantum yield (in CO): 0.27
photoluminescence quantum yield (in CS(C)=O): 0.55
photoluminescence quantum yield (in O): 0.05

Cc1ccccc1CN(Cc1ccccc1C)c1nc(C#N)c(N(Cc2ccccc2C)Cc2ccccc2C)nc1C#N
photoluminescence quantum yield (in ClC(Cl)Cl): 0.73

CCN(CC)c1ccc2c(C)cc(=O)oc2c1
photoluminescence quantum yield (in CCCCCCCCO): 0.68
photoluminescence quantum yield (in CCCCCCO): 0.66
photoluminescence quantum yield (in CCCCO): 0.61
photoluminescence quantum yield (in CCCO): 0.62
photoluminescence quantum yield (in CCO): 0.41
photoluminescence quantum yield (in CO): 0.26
photoluminescence quantum yield (in O): 0.041

O=C(c1ccc(C(=C(c2ccccc2)c2ccccc2)c2ccccc2)cc1)c1ccc(-n2c3ccccc3c3ccccc32)cc1
photoluminescence quantum yield (in C1CCOC1): 0.208

Cc1ccc2c(c1)C(C)(C)c1cc(C)ccc1N2c1ccc2c(c1)C(C)(C)c1cc(N3c4ccc(C)cc4C(C)(C)c4cc(C)ccc43)ccc1S2(=O)=O
photoluminescence quantum yield [1]: 0.73

CC1=C(C#Cc2ccc([Si](c3ccccc3)(c3ccccc3)c3ccccc3)cc2)C(C)=[N+]2C1=C(c1ccccc1)c1c(C)c(C#Cc3ccc([Si](c4ccccc4)(c4ccccc4)c4ccccc4)cc3)c(C)n1[B-]2(F)F
photoluminescence quantum yield (in ClCCl): 0.15

c1ccc(-c2c3ccccc3nc3cc4ccccc4cc23)cc1
photoluminescence quantum yield (in ClCCl): 0.4

CCCN1/C(=C/C=C(/C=C/C2=[N+](CCC)c3ccccc3C2(C)C)c2ccncc2)C(C)(C)c2ccccc21
photoluminescence quantum yield (in CO): 0.24
photoluminescence quantum yield (in CS(C)=O): 0.15
photoluminescence quantum yield (in O): 0.07

N#CC(/N=C/c1ccccc1O)=C(C#N)/N=C/c1ccccc1O
photoluminescence quantum yield (in CC#N): 0.017

CCN(CC)c1ccc2cc(-c3csc(N)c3C#N)c(=O)oc2c1
photoluminescence quantum yield (in C1CCOC1): 0.62
photoluminescence quantum yield (in CO): 0.02
photoluminescence quantum yield (in CS(C)=O): 0.04
photoluminescence quantum yield (in Cc1ccccc1): 0.74
photoluminescence quantum yield (in ClCCl): 0.6

Cc1ccc2sc3cc(CCC(=O)O)ccc3c(=O)c2c1
photoluminescence quantum yield (in CC#N): 0.0041
photoluminescence quantum yield (in CC(C)O): 0.054
photoluminescence quantum yield (in CCO): 0.082
photoluminescence quantum yield (in CO): 0.12
photoluminescence quantum yield (in OCCO): 0.23

CCCC1=Cc2nc1ccc1[nH]c(cc1CCC)c1nc(c(NC(=O)CCCC(=O)OC)cc3[nH]c2cc3CCC)C(CCC)=C1
photoluminescence quantum yield (in Cc1ccccc1): 0.2

CN(C)CCNCc1c2ccccc2cc2ccccc12
photoluminescence quantum yield (in C1CCCCC1): 0.0769
photoluminescence quantum yield (in C1CCOC1): 0.00216
photoluminescence quantum yield (in CC#N): 0.00137
photoluminescence quantum yield (in CC(C)=O): 0.0234
photoluminescence quantum yield (in CCO): 0.0179
photoluminescence quantum yield (in CN(C)C=O): 0.00064
photoluminescence quantum yield (in CO): 0.0124
photoluminescence quantum yield (in ClC(Cl)Cl): 0.0315

c1ccc2c(c1)c1ccc3cccc4c3c1c2c1c2cccc3ccc5c6ccccc6c(c5c32)c41
photoluminescence quantum yield (in ClCCl): 0.0031

O=C1c2ccccc2-c2ccc(N3CCOCC3)c3cccc1c23
photoluminescence quantum yield (in C1CCOC1): 0.15
photoluminescence quantum yield (in CCCCCC): 0.33
photoluminescence quantum yield (in CCO): 0.12
photoluminescence quantum yield (in CCOC(C)=O): 0.3
photoluminescence quantum yield (in CN(C)C=O): 0.14
photoluminescence quantum yield (in CO): 0.12
photoluminescence quantum yield (in Cc1ccccc1): 0.64
photoluminescence quantum yield (in ClC(Cl)(Cl)Cl): 0.18
photoluminescence quantum yield (in ClC(Cl)Cl): 0.53
photoluminescence quantum yield (in ClCCl): 0.53
photoluminescence quantum yield (in c1ccccc1): 0.68

CCOC(=O)c1ccc(C2=Cc3ccccc3P2(=O)c2ccccc2)cc1 (configuration not stated)
photoluminescence quantum yield (in ClCCl): 0.82

Cc1cc(C)c(-c2cc(-c3c(C)cc(C)cc3C)c3ccc4c(-c5c(C)cc(C)cc5C)cc(-c5c(C)cc(C)cc5C)c5ccc2c3c54)c(C)c1
photoluminescence quantum yield (in ClCCl): 0.28

CC1(C)C2=[N+](CCCCCC(=O)NCCNC(=O)CCCCCN3/C(=C/C=C/C=C/C=C/2)C(C)(C)c2cc(S(=O)(=O)[O-])ccc23)c2ccc(S(=O)(=O)[O-])cc21
photoluminescence quantum yield (in CO): 0.57
photoluminescence quantum yield (in O): 0.33

CC1=N/C(=C\c2ccc(N(C)C)cc2)C(=O)N1C
photoluminescence quantum yield (in C1CCCCC1): 0.0001
photoluminescence quantum yield (in C1CCOC1): 0.0004
photoluminescence quantum yield (in CC#N): 0.0003
photoluminescence quantum yield (in CO): 0.0003
photoluminescence quantum yield (in CS(C)=O): 0.0002
photoluminescence quantum yield (in ClCCl): 0.0009
photoluminescence quantum yield (in O): 0.0002

CCCCCCOc1ccc(C#Cc2ccc(C#CC#Cc3ccc(C#Cc4ccc(OCCCCCC)c(OCCCCCC)c4)c4nsnc34)c3nsnc23)cc1OCCCCCC
photoluminescence quantum yield (in CN(C)C=O): 0.006
photoluminescence quantum yield (in COc1ccccc1): 0.43
photoluminescence quantum yield (in Cc1ccccc1): 0.58
photoluminescence quantum yield (in ClC(Cl)Cl): 0.49
photoluminescence quantum yield (in ClCCCl): 0.27
photoluminescence quantum yield (in ClCCl): 0.36

COc1cc(OC)cc(C2=C3C(C)=C(I)C(C)=[N+]3[B-](F)(F)n3c(/C=C/c4c[nH]c5ccc([N+](=O)[O-])cc45)c(I)c(C)c32)c1
photoluminescence quantum yield (in C1CCOC1): 0.32
photoluminescence quantum yield (in CS(C)=O): 0.19
photoluminescence quantum yield (in ClCCl): 0.37

CCCC1=Cc2nc1ccc1[nH]c(cc1CCC)c1nc(c(OCc3ccc(C(=O)O)cc3)cc3[nH]c2cc3CCC)C(CCC)=C1
photoluminescence quantum yield (in Cc1ccccc1): 0.21

COc1ccc(N2c3cc(OC)ccc3N=c3cc4c(cc32)=Nc2cc(C(C)(C)C)cc(C(C)(C)C)c2O4)cc1
photoluminescence quantum yield (in CCCCCC): 0.31

F[B-]1(F)n2c(Cl)c(Cl)c(Br)c2C(Oc2ccccc2)=C2C(Br)=C(Cl)C(Cl)=[N+]21
photoluminescence quantum yield (in ClCCl): 0.05

COc1ccc(C2=C(Br)C(c3ccccc3)=[N+]3C2=Nc2c(-c4ccc(OC)cc4)c(Br)c(-c4ccccc4)n2[B-]3(F)F)cc1
photoluminescence quantum yield (in Cc1ccccc1): 0.01

CCCCn1c(-c2ccc(-c3nnc(-c4ccccc4)o3)cc2)nc(-c2ccccc2)c1-c1ccccc1
photoluminescence quantum yield (in ClCCl): 0.21

CC(=O)Nc1ccc(C2=C/C(=C\c3ccc([N+](=O)[O-])cc3)C(=O)O2)cc1
photoluminescence quantum yield (in C1COCCO1): 0.043

O=CN1N=C(c2ccc(Br)cc2)C[C@@H]1c1ccccc1
photoluminescence quantum yield (in C1CCCCC1): 0.25
photoluminescence quantum yield (in C1COCCO1): 0.25
photoluminescence quantum yield (in CC#N): 0.14
photoluminescence quantum yield (in CCO): 0.13
photoluminescence quantum yield (in CCOC(C)=O): 0.18
photoluminescence quantum yield (in CO): 0.05
photoluminescence quantum yield (in CS(C)=O): 0.11
photoluminescence quantum yield (in Cc1ccccc1): 0.01
photoluminescence quantum yield (in ClC(Cl)(Cl)Cl): 0.02

FC(F)(F)c1ccccc1B1c2ccccc2Nc2ccccc21
photoluminescence quantum yield (in ClCCl): 0.85

CC1(C)c2ccccc2-c2cc3c4cc(-n5c6ccccc6c6ccccc65)ccc4n(-c4ccc(-c5nc(-c6ccccc6)nc(-c6ccccc6)n5)cc4)c3cc21
photoluminescence quantum yield [1]: 0.84

CC(C)[Si](C#Cc1c2cc3ccccc3cc2c(C#C[Si](C(C)C)(C(C)C)C(C)C)c2nc3c(nc12)C1c2ccccc2C3c2ccccc21)(C(C)C)C(C)C
photoluminescence quantum yield (in CCCCCC): 0.54

Nc1ccc2c3c(cccc13)C(=O)c1ccccc1-2
photoluminescence quantum yield (in CC#N): 0.1
photoluminescence quantum yield (in CC(C)=O): 0.11
photoluminescence quantum yield (in CC(C)O): 0.03
photoluminescence quantum yield (in CCCCOCCCC): 0.34
photoluminescence quantum yield (in CCOC(C)=O): 0.21
photoluminescence quantum yield (in CCOCC): 0.26
photoluminescence quantum yield (in CO): 0.02
photoluminescence quantum yield (in Cc1ccccc1): 0.3
photoluminescence quantum yield (in Clc1ccccc1): 0.25
photoluminescence quantum yield (in N#Cc1ccccc1): 0.14
photoluminescence quantum yield (in O=C1CCCCC1): 0.15

Cc1cc(-c2ccc(-c3n(C)c4ccccc4[n+]3C)cc2)ccc1-c1ccc(-c2n(C)c3ccccc3[n+]2C)cc1
photoluminescence quantum yield (in O): 0.65

CN(C)c1ccc(/C=C/c2cnc(-c3ccncc3)o2)cc1
photoluminescence quantum yield (in ClCCl): 0.65

O=S(=O)([O-])c1ccc(O)c2ccccc12
photoluminescence quantum yield (in C1COCCO1): 0.14
photoluminescence quantum yield (in CC#N): 0.17
photoluminescence quantum yield (in CC(C)O): 0.2
photoluminescence quantum yield (in CCCCO): 0.2
photoluminescence quantum yield (in CCO): 0.18
photoluminescence quantum yield (in CCOC(C)=O): 0.14
photoluminescence quantum yield (in CN(C)C=O): 0.14
photoluminescence quantum yield (in CO): 0.16
photoluminescence quantum yield (in CS(C)=O): 0.25

CCC1=C(C)C2=Cc3c(I)c(I)c(I)n3[B-](F)(F)[N+]2=C1C
photoluminescence quantum yield (in C1CCCCC1): 0.065
photoluminescence quantum yield (in CC(C)=O): 0.029
photoluminescence quantum yield (in CCO): 0.037
photoluminescence quantum yield (in CCOC(C)=O): 0.037
photoluminescence quantum yield (in CO): 0.032
photoluminescence quantum yield (in OCC(F)(F)F): 0.021

COc1ccc(N(c2ccc(OC)cc2)c2cc(N(c3ccc(OC)cc3)c3ccc(OC)cc3)c3ccc4cc(C(C)(C)C)cc5ccc2c3c54)cc1
photoluminescence quantum yield (in ClCCl): 0.6

COc1cc(OC)cc(C2=[O+][B-](F)(F)OC(c3cccs3)=C2)c1
photoluminescence quantum yield (in CC#N): 0.002
photoluminescence quantum yield (in CC(C)=O): 0.01
photoluminescence quantum yield (in CCCCCC): 0.16
photoluminescence quantum yield (in Cc1ccccc1): 0.14
photoluminescence quantum yield (in ClCCl): 0.04

Reference: the Deep4Chem optical property database
